Measurements taken from ChEMBL document CHEMBL5724914, “Linking interpersonal differences in gut microbiota composition and drug biotransformation activity” (2024).

What was measured:
[1] = The drug is tested on WLS-069 corresponding to human gut metagenome with ENA study accession number: PRJEB37062 and ENA sample accession number: ERS12561748 for biotransformation under anaerobic condition. The drug concentrations were measured over 9 timepoints collected between 0 and 24 hours of incubation by liquid-chromatography-coupled mass spectrometry (LC–MS); conditions: 2 µM
[2] = The drug is tested on Z-020 corresponding to rabbit gut metagenome with ENA study accession number: PRJEB37062 and ENA sample accession number: ERS12561819 for biotransformation under anaerobic condition. The drug concentrations were measured over 9 timepoints collected between 0 and 24 hours of incubation by liquid-chromatography-coupled mass spectrometry (LC–MS); conditions: 2 µM
[3] = The drug is tested on WLS-007 corresponding to human gut metagenome with ENA study accession number: PRJEB37062 and ENA sample accession number: ERS12561742 for biotransformation under anaerobic condition. The drug concentrations were measured over 9 timepoints collected between 0 and 24 hours of incubation by liquid-chromatography-coupled mass spectrometry (LC–MS); conditions: 2 µM
[4] = The drug is tested on WLS-086 corresponding to human gut metagenome with ENA study accession number: PRJEB37062 and ENA sample accession number: ERS12561752 for biotransformation under anaerobic condition. The drug concentrations were measured over 9 timepoints collected between 0 and 24 hours of incubation by liquid-chromatography-coupled mass spectrometry (LC–MS); conditions: 2 µM
[5] = human gut metagenome, 24 h, 2 µM
[6] = human gut metagenome, 24 h, 2 µM; remark: listed apart in the source
[7] = The drug is tested on Z-010 corresponding to metagenome with ENA study accession number: PRJEB37062 and ENA sample accession number: ERS12561810 for biotransformation under anaerobic condition. The drug concentrations were measured over 9 timepoints collected between 0 and 24 hours of incubation by liquid-chromatography-coupled mass spectrometry (LC–MS); conditions: 2 µM
[8] = The drug is tested on Z-027 corresponding to metagenome with ENA study accession number: PRJEB37062 and ENA sample accession number: ERS12561826 for biotransformation under anaerobic condition. The drug concentrations were measured over 9 timepoints collected between 0 and 24 hours of incubation by liquid-chromatography-coupled mass spectrometry (LC–MS); conditions: 2 µM
[9] = The drug is tested on Z-014 corresponding to rat gut metagenome with ENA study accession number: PRJEB37062 and ENA sample accession number: ERS12561814 for biotransformation under anaerobic condition. The drug concentrations were measured over 9 timepoints collected between 0 and 24 hours of incubation by liquid-chromatography-coupled mass spectrometry (LC–MS); conditions: 2 µM
[10] = human gut metagenome, 24 h, 2 µM; remark: listed apart in the source
[11] = human gut metagenome, 24 h, 2 µM; remark: listed apart in the source
[12] = human gut metagenome, 24 h, 2 µM; remark: listed apart in the source
[13] = human gut metagenome, 24 h, 2 µM; remark: listed apart in the source
[14] = human gut metagenome, 24 h, 2 µM; remark: listed apart in the source
[15] = The drug is tested on Z-019 corresponding to rat gut metagenome with ENA study accession number: PRJEB37062 and ENA sample accession number: ERS12561818 for biotransformation under anaerobic condition. The drug concentrations were measured over 9 timepoints collected between 0 and 24 hours of incubation by liquid-chromatography-coupled mass spectrometry (LC–MS); conditions: 2 µM
[16] = The drug is tested on Z-008 corresponding to metagenome with ENA study accession number: PRJEB37062 and ENA sample accession number: ERS12561808 for biotransformation under anaerobic condition. The drug concentrations were measured over 9 timepoints collected between 0 and 24 hours of incubation by liquid-chromatography-coupled mass spectrometry (LC–MS); conditions: 2 µM
[17] = The drug is tested on Z-002 corresponding to rabbit gut metagenome with ENA study accession number: PRJEB37062 and ENA sample accession number: ERS12561802 for biotransformation under anaerobic condition. The drug concentrations were measured over 9 timepoints collected between 0 and 24 hours of incubation by liquid-chromatography-coupled mass spectrometry (LC–MS); conditions: 2 µM
[18] = The drug is tested on WLS-052 corresponding to human gut metagenome with ENA study accession number: PRJEB37062 and ENA sample accession number: ERS12561747 for biotransformation under anaerobic condition. The drug concentrations were measured over 9 timepoints collected between 0 and 24 hours of incubation by liquid-chromatography-coupled mass spectrometry (LC–MS); conditions: 2 µM
[19] = The drug is tested on Z-003 corresponding to pig gut metagenome with ENA study accession number: PRJEB37062 and ENA sample accession number: ERS12561803 for biotransformation under anaerobic condition. The drug concentrations were measured over 9 timepoints collected between 0 and 24 hours of incubation by liquid-chromatography-coupled mass spectrometry (LC–MS); conditions: 2 µM
[20] = The drug is tested on Z-023 corresponding to metagenome with ENA study accession number: PRJEB37062 and ENA sample accession number: ERS12561822 for biotransformation under anaerobic condition. The drug concentrations were measured over 9 timepoints collected between 0 and 24 hours of incubation by liquid-chromatography-coupled mass spectrometry (LC–MS); conditions: 2 µM
Further: call rule not given here.

Compound	Bacterial Biotransformation [1]	Bacterial Biotransformation [2]	Bacterial Biotransformation [3]	Bacterial Biotransformation [4]	Bacterial Biotransformation [5]	Bacterial Biotransformation [6]	Bacterial Biotransformation [7]	Bacterial Biotransformation [8]	Bacterial Biotransformation [9]	Bacterial Biotransformation [10]	Bacterial Biotransformation [11]	Bacterial Biotransformation [12]	Bacterial Biotransformation [13]	Bacterial Biotransformation [14]	Bacterial Biotransformation [15]	Bacterial Biotransformation [16]	Bacterial Biotransformation [17]	Bacterial Biotransformation [18]	Bacterial Biotransformation [19]	Bacterial Biotransformation [20]
Br.COc1ccc2c(c1)[C@]13CCCC[C@@H]1[C@H](C2)N(C)CC3.O [DEXTROMETHORPHAN HYDROBROMIDE]	Compound metabolized	Compound metabolized	Compound NOT metabolized	Compound metabolized	Compound metabolized	Compound metabolized	Compound metabolized	Compound NOT metabolized	Compound NOT metabolized	Compound metabolized	Compound metabolized	Compound NOT metabolized	Compound NOT metabolized	Compound NOT metabolized	Compound NOT metabolized	Compound NOT metabolized	Compound metabolized	Compound NOT metabolized	Compound metabolized	Compound metabolized
CC#C[C@]1(O)CC[C@H]2[C@@H]3CCC4=CC(=O)CCC4=C3[C@@H](c3ccc(N(C)C)cc3)C[C@@]21C [MIFEPRISTONE]	Compound metabolized	Compound metabolized	Compound metabolized	Compound metabolized	Compound NOT metabolized	Compound metabolized	Compound metabolized	Compound NOT metabolized	Compound NOT metabolized	Compound metabolized	Compound NOT metabolized	Compound NOT metabolized	Compound NOT metabolized	Compound NOT metabolized	Compound NOT metabolized	Compound metabolized	Compound metabolized	Compound metabolized	Compound metabolized	Compound NOT metabolized
Cc1ccccc1C(OCCN(C)C)c1ccccc1.O=C(O)CC(O)(CC(=O)O)C(=O)O (stereo not given) [ORPHENADRINE CITRATE]	Compound NOT metabolized	Compound metabolized	Compound metabolized	Compound NOT metabolized	Compound NOT metabolized	Compound metabolized	Compound NOT metabolized	Compound NOT metabolized	Compound NOT metabolized	Compound NOT metabolized	Compound NOT metabolized	Compound NOT metabolized	Compound NOT metabolized	Compound NOT metabolized	Compound NOT metabolized	Compound NOT metabolized	Compound metabolized	Compound NOT metabolized	Compound NOT metabolized	Compound metabolized
